Values quoted from earlier work as cited in patent US20040109898A1, “Topical composition for heightened sensitivity” (priority 2002, published 2004).
Like-named read-outs stand apart in the source and are kept apart here.

Experiments:
[1] = cold, heat, cooking, freezing

solubility in alcohols, fats, and oils (alcohols, fats, and oils) | solubility in water (water) | Compound | Scoville Unit (SU) rating (panel of individuals; pure, individual capsaicinoids) | Scoville Units rating (panel of individuals; individual capsaicinoid) | detectable to the palate in dilutions of (palate) | stability / retention of potency [1] | Scoville Unit (SU) rating (panel of individuals)
 |  | COc1cc(CNC(=O)CCCCCCCC(C)C)ccc1O [Homodihydrocapsaicin, 9-methyl-N-vanillyl-decanamide] | 8.6 million SU |  |  |  | 
very soluble | slightly soluble | COc1cc(CNC(=O)CCCC/C=C/C(C)C)ccc1O [Capsaicin, 8-methyl-N-vanillyl-6-(E)-nonenamide] | 16 million SU | 16 million Scoville Units | one to seventeen million | seemingly unaffected by cold or heat, which retains its original potency despite time, cooking, or freezing | 
 |  | COc1cc(CNC(=O)CCCCC/C=C/C(C)C)ccc1O [Homocapsaicin, 9-methyl-N-vanillyl-7-(E)-decenamide] |  |  |  |  | 8.6 million SU
